The text below walks through data of paper PMC11929074, “An in vitro platform for the enzymatic characterization of the rhomboid protease RHBDL4” (The Journal of Biological Chemistry, 2025).

Assay [1] has as its target T1, WT RHBDL4 (human rhomboid protease RHBDL4, recombinant) (human) (UniProt Q8TEB9).
T1 sequence: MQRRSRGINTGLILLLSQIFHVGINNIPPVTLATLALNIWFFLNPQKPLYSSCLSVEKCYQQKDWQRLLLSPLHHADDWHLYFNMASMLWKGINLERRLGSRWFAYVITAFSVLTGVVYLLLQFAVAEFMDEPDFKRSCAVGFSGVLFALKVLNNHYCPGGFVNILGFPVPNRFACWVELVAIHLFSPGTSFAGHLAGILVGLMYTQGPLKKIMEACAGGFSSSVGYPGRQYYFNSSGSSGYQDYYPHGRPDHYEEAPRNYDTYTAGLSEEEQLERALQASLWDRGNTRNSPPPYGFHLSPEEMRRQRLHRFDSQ

The target in assay [2] is T2, recombinant human RHBDL4 (Homo sapiens, UniProt Q8TEB9).
T2 construct: The entire RHBDL4 and RHBDL4-S144A cDNAs were subcloned into the pcDNA3.1 vector; 6xHis (C, cleaved yes); made in house; host or cells: Freestyle 293-F cells (transient transfection, pcDNA3.1-HisA)
T2 sequence (Q8TEB9 1-315): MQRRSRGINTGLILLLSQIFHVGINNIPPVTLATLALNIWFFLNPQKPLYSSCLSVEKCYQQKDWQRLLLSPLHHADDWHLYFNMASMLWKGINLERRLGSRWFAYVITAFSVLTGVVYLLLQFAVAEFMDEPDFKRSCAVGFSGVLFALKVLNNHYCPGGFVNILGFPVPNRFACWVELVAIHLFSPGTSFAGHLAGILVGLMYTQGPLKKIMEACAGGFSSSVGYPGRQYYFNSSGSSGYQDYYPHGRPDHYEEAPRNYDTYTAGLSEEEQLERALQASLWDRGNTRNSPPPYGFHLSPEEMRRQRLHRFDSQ
Nature of the assay: FRET-based cleavage assay with fluorescent (IQ / KSp207) substrates. The following applies: for kcat / pH of highest RHBDL4 protease activity / salt concentration range with satisfactory activity: triplicate; for kcat: average ± S.E.M.; for pH of highest RHBDL4 protease activity: pH range 5 to 10; for salt concentration range with satisfactory activity: salt tested 100 to 300 mM. The assay is classed as biochemical. The method, then:
Figure 2 Kinetic characterization of recombinant human RHBDL4.A, schematic representation of the FRET-based cleavage assay using internally quenched (IQ) substrates. B, saturation curves of RHBDL4 using the fluorescent IQ substrates, IQ6, IQ41, and IQ46. C, pH dependence of the RHBDL4 protease activity using substrates IQ6, IQ41, and IQ46. D, salt concentration dependence of the RHBDL4 protease activity using substrates IQ6, IQ41, and IQ46. All the assays were performed in triplicate, and data points are represented by the average ± S.E.M. TEXT PRINTED IN THE PICTURE: (B) IQ 6: KM(μM) 10.73±2; Kcat(hr^-1) 7.33±0.6 | (B) IQ 41: KM(μM) 5.63±2; Kcat(hr^-1) 2.41±0.6 | (B) IQ 46: KM(μM) 7.19±1; Kcat(hr^-1) 3.62±0.8
(§1) The reaction setup in our FRET assay enabled the direct determination of Michaelis–Menten kinetic parameters Km and kcat for the cleavage of IQ6, IQ41, and IQ46 by RHBDL4. Our fluorescence reading data were converted to μM/h using the standard calibration curve for all three IQ substrates, and the correction factor for the inner filter effect was applied. We confirmed that purified RHBDL4 followed Michaelis–Menten kinetics with KmIQ6=10.73±2μΜ , KmIQ41=5.63±2μΜ , and KmIQ46=7.19±1μΜ and kcatIQ6=7.33±0.6h^−1 , kcatIQ41=2.41±0.6h^−1 , and kcatIQ46=3.62±0.08h^−1 (Figs. 2B and S2B).
Our FRET-based assay is a suitable platform for optimizing conditions that enhance RHBDL4 protease activity. To this end, we selected the optimal pH for RHBDL4 protease activity and performed FRET-based assays with IQ6, IQ41, and IQ46 at a pH range of 5 to 10. […] The optimal salt concentration for the RHBDL4 protease activity was also tested in the range of 100 to 300 mM (Fig. 2D). We conclude that with the IQ6, IQ41, and IQ46 substrates, RHBDL4 had satisfactory activity in a salt concentration range of 100 to 300 mM.
(§2) Figure 5 In vitro inhibition of RHBDL4 activity with TMED7-derived peptidyl α-ketoamides.A, schematic representation of the peptidyl-α-ketoamide inhibitor, compound 3 and 4. B, representative inhibition curve derived from measuring rates of RHBDL4 proteolysis of the fluorescent substrate IQ6 with increasing concentrations of compound 3. C, same as (B), except inhibition curve was derived from using increasing concentrations of compound 4. […] Reactions were quenched with 1 RLaemmli buffer and loaded on 12% SDS-PAGE gel. Post-transfer membranes were visualized using a fluorescence Cy3 filter and by Western blotting using an α-His antibody. E, saturation curve of RHBDL4 using fluorescent substrate, KSp207. For (B and C), all inhibitors were pre-incubated with RHBDL4 for 1 h and allowed to react with the IQ6 substrate for 2 h. […]
(§3) The enzymatic assay was performed as previously described (Arutyunova et al., 2014, ([26])). […] The FRET-based cleavage assay was conducted in a fluorescence multiwell plate reader (SynergyMx, BioTek). Upon excitation at 320 nm, the emission intensity at 400 nm was recorded for 2 h at minimal intervals under shaking conditions and plotted using the GraphPad PRISM software. The initial velocities were defined as the slopes of the curve of the generated product as a function of time. The plots of the generated product against the corresponding substrate concentration were fitted with the Michaelis–Menten equation. Catalytic parameters were extrapolated using GraphPad PRISM. […] The samples were desalted using C18 tips (Rainin), eluted in 80% acetonitrile, and dried down in a vacuum centrifuge prior to mass spectrometry analysis.
All the calculations for Km, Vmax, and Kcat for RHBDL4 and its mutants were performed using GraphPad PRISM.

The test system of a further assay is RHBDL4-S144A. Kind of assay: FRET-based cleavage by inactive RHBDL4-S144A. The format is biochemical, human. The following applies: pH 8, 37 °C.
Excerpt: as §1
Figure 3 Dependence of conserved rhomboid motifs on RHBDL4 protease activity.A, RHBDL4 representation highlighting TM1–6 (in green), the VBM- and UIM-binding motifs (in blue), the conserved rhomboid motifs (WR and Gx3G), and the serine-histidine catalytic dyad (in pink). The table indicates the RHBDL4 region, the conserved rhomboid motifs, and amino acid mutation. The RHBDL4 proteolytic activity. B, size-exclusion chromatography profile of RHBDL4-AR and RHBDL4-Ax3G, being eluted as a monomeric protein. C, coomassie staining and Western blotting using an α-His antibody of concentrated purified RHBDL4-AR and RHBDL4-Ax3G. D, activity profiles of the WT RHBDL4 and mutant RHBDL4-S144A, RHBDL4-AR, and RHBDL4-Ax3G proteins, as measured by cleavage of the fluorescent substrate IQ6. Assay was performed in triplicate (n = 3), and data points are represented by the average ± S.E.M. Statistically significant differences compared to WT RHBDL4 are indicated (pairwise Dunnett's test followed by Bonferroni's post hoc analysis; ∗p < 0.05, n.s., no significance).
The enzymatic assay was performed as previously described (Arutyunova et al., 2014, ([26])). […] The FRET-based cleavage assay was conducted in a fluorescence multiwell plate reader (SynergyMx, BioTek). Upon excitation at 320 nm, the emission intensity at 400 nm was recorded for 2 h at minimal intervals under shaking conditions and plotted using the GraphPad PRISM software. […]

Assay [3] has as its target T2, recombinant human RHBDL4. Kind of assay: Inhibition of RHBDL4 proteolysis of IQ6 (FRET-based in vitro assay). To be noted: IQ6 substrate; for inhibition of RHBDL4 proteolytic activity: increasing concentrations, 1 h pre-incubation, 2 h reaction, n = 3. The format is biochemical.
Excerpt: (§4) B, schematic representation of the peptidyl-α-ketoamide scaffold with peptide sequence P5-P1 at the nonprime side and hydrophobic substituent (R) at the prime side. C, schematic representation of the peptidyl-α-ketoamide inhibitor, compound 1a/1b. D, representative inhibition curve derived from measuring rates of RHBDL4 proteolysis of the fluorescent substrate IQ6 with increasing concentrations of compound 1a. E, same as (D), except inhibition curve was derived from using increasing concentrations of compound 1b. […] Reactions were quenched with 1 keLaemmli buffer and loaded on 12% SDS-PAGE gel. Post-transfer membranes were visualized using a fluorescence Cy3 filter and by Western blotting using an α-His antibody. For (A, D, and E), all inhibitors were pre-incubated with RHBDL4 for 1 h and allowed to react with the IQ6 substrate for 2 h.
as §2, with “B,” for “Figure 5 In vitro inhibition of RHBDL4 activity with TMED7-derived peptidyl α-ketoamides.A, schematic representation of the peptidyl-α-ketoamide inhibitor, compound 3 and 4. B,”
as §3

In assay [4] the test system is WT RHBDL4 (recombinant, purified). Nature of the assay: TAMRA-FP competition labelling on recombinant RHBDL4. The format is binding, human. The following applies: in-gel Cy3 fluorescence, compared with inactive RHBDL4-S144A control.
Excerpt: as §4
as §2, with “B,” for “Figure 5 In vitro inhibition of RHBDL4 activity with TMED7-derived peptidyl α-ketoamides.A, schematic representation of the peptidyl-α-ketoamide inhibitor, compound 3 and 4. B,”

Where [5] appears, read: Michaelis-Menten, 1.5 μM RHBDL4, 37 °C, 2 h, pH 8.0, 150 mM NaCl, 0.1% DDM.

*1 amine or outer side, *2 acyl side, *3 side chain or, on linkers, in order; H or OH if unused. Where a SMILES comes first, the peptide text is derived from it. [ ]: non-standard residue; d: D form. The star is where a group is joined. NH(4-phenylbutyl) = c1ccc(CCCCN*)cc1; X1 = C[C@H](N[*:1])C(=O)C(=O)[*:2]

In the case of “compound 1a (peptidyl α-ketoamide, Ac-VRHA-CONH-CH(Bn)-CH2OBn) (peptide)”, the IC50 of inhibition of RHBDL4 proteolysis of the fluorescent substrate IQ6 (in vitro FRET-based activity assay; 1 h pre-incubation, 2 h reaction) in assay [1] was 2.31 µM. By kcat is commonly meant the number of substrate molecules converted per active site and unit of time at saturation. For the molecule “mca-FVTKGK(dnp) [IQ41, fluorescent internally quenched substrate mca-FVTKGK(dnp)]”, the kcat at recombinant human RHBDL4 [2] (37 °C, pH 8.0) came to 0.000669 ± 0.00017 s⁻¹. Also, on recombinant human RHBDL4 [2] (setting [5]), the kcat came out at 0.000669 ± 0.00017 s⁻¹. On recombinant human RHBDL4 [2], the “pH of highest RHBDL4 protease activity” value came out at 7 and the “salt concentration range with satisfactory activity” value fell in the range of 100 to 300 mM. Besides, in the assay with RHBDL4-S144A, the “cleavage by inactive RHBDL4-S144A (increase in fluorescence / activity)” value is “negligible increase in fluorescence”. The term IC50 denotes the point on the concentration scale where inhibition reaches its midpoint. `CC(=O)N1CCC[C@H]1C(=O)NCC(=O)N[C@@H](Cc1ccccc1)C(=O)N[C@@H](CO)C(=O)N[C@@H](C)C(=O)C(=O)NCCCCc1ccccc1` [compound 2] (Ac-PGFS[X1]-{NH(4-phenylbutyl)}): the IC50 on recombinant human RHBDL4 [3] (inhibitor pre-incubated with RHBDL4 for 1 h, then reacted with IQ6 for 2 h, n = 3, average ± S.E.M.) came to 3.4 ± 1.2 µM. `CC(=O)N[C@H](C(=O)N[C@@H](CCCNC(=N)N)C(=O)NC(Cc1c[nH]cn1)C(=O)N[C@@H](C)C(=O)C(=O)N[C@H](COCc1ccccc1)Cc1ccccc1)C(C)C` (stereo partly shown) [compound 1a]: the “competition with TAMRA-FP probe (fluorescent signal)” value in assay [4] is “significant reduction of fluorescent signal”. As for `Cc1ccc(S(=O)(=O)N[C@@H](Cc2ccccc2)C(=O)CCl)cc1` [N-p-tosyl-L-phenylalanine chloromethyl ketone], the “inhibition of RHBDL4 proteolytic activity” value on recombinant human RHBDL4 [3] is “weak inhibition at all concentrations tested”.

As to `O=c1oc(Cl)c(Cl)c2ccccc12` [3,4-dichloroisocoumarin], on recombinant human RHBDL4 [3], the “inhibition of RHBDL4 proteolytic activity” value is recorded as “inhibited the RHBDL4 proteolytic activity only at higher concentrations (100 μM)”. On to “Ac-QMESA-4mc [KSp207, TMED7-derived fluorescent substrate Ac-QMESA-4mc]”, for which the “cleavage rate/efficiency relative to other substrates” value at recombinant human RHBDL4 [2] (FRET-based assay) is given as “higher enzymatic cleavage efficiency than IQ6”. The kcat at recombinant human RHBDL4 [2] (setting [5]) came to 0.003069 ± 0.00022 s⁻¹. In addition, on recombinant human RHBDL4 [2] (approximate, discussion), the “catalytic rate (cleavage rate)” value was about 11 h⁻¹. In the case of “mca-FLVRGK(dnp) [IQ46, fluorescent internally quenched substrate mca-FLVRGK(dnp)]”, at recombinant human RHBDL4 [2] (37 °C, pH 8.0), the kcat was 0.00101 ± 0.00022 s⁻¹. In addition, at recombinant human RHBDL4 [2] (setting [5]), the kcat was 0.00101 ± 2.2e-05 s⁻¹. On recombinant human RHBDL4 [2], the “pH of highest RHBDL4 protease activity” value is 8 and the “salt concentration range with satisfactory activity” value is 100 to 300 mM. For the same molecule, the “cleavage by inactive RHBDL4-S144A (increase in fluorescence / activity)” value in the assay with RHBDL4-S144A was “negligible increase in fluorescence”. Turning to `CC(=O)N[C@H](C(=O)N[C@@H](CCCNC(=N)N)C(=O)NC(Cc1c[nH]cn1)C(=O)N[C@@H](C)C(=O)C(=O)N[C@H](COCc1ccccc1)Cc1ccccc1)C(C)C` (stereo partly shown) [compound 1b], the “competition with TAMRA-FP probe (fluorescent signal)” value in assay [4] is listed as “significant reduction of fluorescent signal”. Consider “compound 1b (peptidyl α-ketoamide, Ac-VRHA-CONH-CH(Bn)-CH2OBn) (peptide)”, for which the IC50 of inhibition of RHBDL4 proteolysis of the fluorescent substrate IQ6 (in vitro FRET-based activity assay; 1 h pre-incubation, 2 h reaction) in assay [1] amounted to 6.1 µM. With `Cl.NCCc1ccc(S(=O)(=O)F)cc1` [4-(2-aminoethyl) benzenesulfonyl fluoride hydrochloride], at recombinant human RHBDL4 [3], the “inhibition of RHBDL4 proteolytic activity” value is listed as “weak inhibition at all concentrations tested”.

B1: compound 2 (IQ6-derived peptidyl α-ketoamide, Ac-PGFSA-CONH-(CH2)4-Ph) (peptide)
peptide: Ac-PGFSA-{α‑ketoamide CONH‑(CH2)4‑Ph}
As for B1, the IC50 of inhibition of RHBDL4 activity (in vitro FRET-based activity assay) in assay [1] was 3.4 µM.
